# pIC50: −log10 of the molar value. Like-named read-outs stand apart in the source and are kept apart here.
# Columns and labels:
# GSK-3β = assay: Western blot of serine-9-phosphorylated GSK-3β (FIG. 5); assay type: cell-based, rat; conditions: compound alone, 2 hours; CRF 10 nM, LY 294002 75 μM, FSK 30 μM
# Description: It was thought that CRF receptor agonists might interact with the PI 3-kinase signalling pathway and exert their neuroprotective effect by phosphorylating and inhibiting the protein GSK-3β,which is pro-apoptotic (M. Pap and G. M. Cooper, J. Biol. Chem., 273(32), 19929-19932, 1998; and M. Hetman et al. J. Neurosci., 1st Apr. 2000, 20(7), 2567-2574; discussed hereinabove). In order to confirm this, the level of GSK-3β phosphorylated at serine-9 (e.g. see D. A. E. Cross, Nature, 378, 785-789, 1995) in control cultures of cerebellar granule neurones was measured using Western blots, and compared to the level of phospho-GSK-3β in the presence of CRF as a model CRF receptor agonist and/or in the presence of the PI 3-kinase inhibitor LY 294002. In order to determine whether elevation of cAMP was involved in any effect, the level of phospho-GSK-3β in cultures in the presence of the known cAMP-elevating agent forskolin (FSK, obtainable e.g. from Calbiochem.) with or without LY 294002 present was also measured. The forskolin acts as a benchmark for cAMP-related effects.
# The method used was as follows. […]
# Phosphorylation of GSK-3β was detected using an antibody to serine-9-phosphorylated GSK-3β (anti-phospho-GSK-3β (Ser9)) available as catalogue no. […]
# PI 3-kinase = conditions: cited from earlier work
# [1] = test system: cerebellar granule neurones; assay type: cell-based, rat; conditions: 48 h, MTT, sham-treated = 100%
# Procedure: Cerebellar granule neurones were used in the examples to test neuroprotection by CRF receptor agonists. Cerebellar granule neurones (CGNs) undergo apoptosis during the first few weeks of postnatal life, and in culture require mildly depolarising concentrations of KCl (25 mM) for their survival and maturation (S. R: D'Mello et al., Proc. Natl. Acad. Sci. USA 90, 10989-10993, 1993). The growth signal provided by KCl depends upon activation of the phosphatidylinositol 3-kinase (PI 3-kinase) pathway, and pharmacological inhibition of PI 3-kinase in differentiated granule neurones leads to apoptotic death in the CGNs (T. M. Miller et al., J. Biol. Chem., 272, 9847-9853, 1997). Thus, cultured CGNs represent a suitable model to study mechanisms of programmed cell death, and to identify putative neuroprotective signalling pathways.
# Assay 1: Cerebellar granule neurones prepared from postnatal day 8 Sprague Dawley rat pups were used for experiments on death induced by inhibition of PI 3-kinase. General culture methods are described in S. D. Skaper et al. in Methods in Neurosciences, Vol. 2 (Conn P. M., ed), pp. 17-33. Academic Press, San Diego, 1990. At 8-9 days in vitro (DIV), granule neurone cultures were shifted to phenol red-free Dulbecco's modified Eagle's medium lacking serum, and containing 0.05% bovine serum albumin and 25 mM KCl. Death was induced by addition of the PI 3-kinase inhibitor LY 294002 (75 μM). CRF or CRF agonist peptides (urotensin 1, urocortin, sauvagine) were added at different concentrations (from 0.3nM to 300 nM or 1000 nM) together with LY 294002. Forty-eight hours later neuronal survival was quantified by a colorimetric reaction MTT. Absolute MTT values obtained were normalised for small differences in interexperiment plating densities by scaling to the mean of sham-treated sister cultures (defined as 100%).
# Results are shown in Table 1 below and in graphical form in FIG. 1, which show the percentage mean neuronal survival (and standard deviation), when in the presence of the relevant CRF receptor agonists and LY 294002, as a function of agonist concentration. […] Urotensin 1, urocortin and sauvagine were also neuroprotective albeit with lower potency (<1 μM).
# [2] = test system: cerebellar granule neurones; assay: Assay 3: intracellular cyclic AMP enzyme immunoassay; assay type: cell-based, rat; conditions: agonist 0 to 30 nM, 15 min, 0.5 mM IBMX
# Procedure: Assay 3: The production of cAMP by the CRF receptor agonist peptides CRF, urotensin 1, urocortin and sauvagine was measured as follows. This assay can be used analogously for any putative CRF receptor agonists including non-peptide agonists.
# Intracellular cyclic AMP was measured with a cAMP 2-site enzyme immunoassay system (trade mark BIOTRAK, commercially available from Amersham Pharmacia Biotech, PO Box 164, Rainham, Essex RM13 8JZ, United Kingdom, Amersham catalogue number RPN225), based upon the use of a sensitive and highly specific capture antibody for cyclic AMP:
# Cerebellar granule neurones were seeded in polylysine-coated […] plates, 3.5×10^5 cells per 48-well, in Basal medium Eagle's containing 10% fetal calf serum, 25 mM KCl, and antibiotics. At 8-9 days in vitro, granule neurone cultures were shifted to serum-free plating medium (0.4 ml) with 0.5 mM IBMX (to inhibit the breakdown of cyclic AMP) for 15 min (37° C.). Wells then received 0.1 ml of test peptide (5× final concentration). Generally 1 μM is the preferable final concentration for a putative CRF agonist under test, though different (e.g. lower) concentrations can be used as shown for the peptide agonists in FIG. 3. Incubation was continued for 15 min. Test medium was removed and the plate placed on dry ice, and stored at −140° C. Cyclic AMP analysis was performed the following day.
# Cells were then lysed with the reagent provided with the BIOTRAK kit. Intracellular content of cyclic AMP in the lysates was assayed following the manufacturer's instructions. A standard curve was constructed using the cyclic AMP calibration provided, with the quantity of bound cyclic AMP being inversely proportional to the amount of second (chromogenic) antibody bound to the reaction wells. The colour product was read with an ELISA plate reader, and was a function of the amount of cyclic AMP in the unknown sample.
# [3] = test system: spontaneous hypertensive rats (SHR); assay: Distal middle cerebral artery occlusion (MCAO), icv dosing (FIG. 7); assay type: in vivo; conditions: 10 μg/rat icv, 15 min and 2 hours post MCAO; 24 h permanent MCAO
# Procedure: The animal protocols are as follows.
# Focal ischemia experiments were performed on male spontaneously hypertensive rats (SHR; Taconic Farms, Germantown, N.Y., US) weight range 280-340 g. Body temperature was maintained at 37° C. during all surgical procedures and during recovery from anesthesia (i.e., until normal locomotor activity returned). Animals were anesthetized with pentobarbital (65 mg/kg, i.p.) and underwent permanent, right middle cerebral artery occlusion (MCAO) for 24 h as described previously (F. C. Barone et al., Neuroscience & Biobehavioral Reviews, 16 (1992) 219-33, and F. C. Barone et al., Stroke, 29 (1998) 1937-50). Body temperature was monitored throughout the surgical procedure by a rectal thermometer, and the animals maintained normothermic (37±0.5° C.) via a heating blanket controlled by the thermometer. A needle temperature probe was also inserted into the left temporalis muscle to give an indirect measurement of brain temperature. Actual core and temporalis temperature values were recorded at the time of MCA occlusion. […]
# The rats were allowed to recover from surgery on a heating pad while containing to be under the influence of the pentobarbital anesthesia. Once animals were able to right themselves and begin spontaneous movement, they were placed in cages on the heating pads and monitored for any distress until fully recovered from anesthesia. […]
Compound,phospho-GSK-3β level compared to control CN (GSK-3β),pIC50 (PI 3-kinase),IC50 PI 3-kinase activity (PI 3-kinase),Mean survival % ([1]; agonist 0.3 nM with LY 294002 75 μM),Mean survival % ([1]; agonist 1 nM with LY 294002 75 μM),Mean survival % ([1]; agonist 3 nM with LY 294002 75 μM),Mean survival % ([1]; agonist 10 nM with LY 294002 75 μM),Mean survival % ([1]; agonist 30 nM with LY 294002 75 μM),Mean survival % ([1]; agonist 100 nM with LY 294002 75 μM),Mean survival % ([1]; agonist 300 nM with LY 294002 75 μM),Mean survival % ([1]; agonist 1000 nM with LY 294002 75 μM),cAMP synthesis induced by agonist (FIG. 3) [2],infarct size [3],numerical score for neurological deficits [3]
"O=c1cc(N2CCOCC2)oc2c(-c3ccccc3)cccc12 [LY 294002, 2-(4-morpholinyl)-8-phenyl-4H-1-benzopyran-4-one]",a decrease compared to control,5.85,0.43 µg/mL,,,,,,,,,,,
"NDDPPISIDLTFHLLRNMIEMARIENEREQAGLNRKYLDEV [Urotensin 1, Urotensin 1 (teleost fish, Sigma cat. no. U-7253), CRF receptor agonist peptide]",,,,42%,52.89%,68%,74.44%,71.67%,71.17%,73.83%,79.17%,cAMP production increased with agonist concentration,70-80 mm^3,9

# From US20080113908A1, “Use of CRF receptor agonists for the treatment or Prophylaxis of diseases, for example Neurodegenerative diseases” (SmithKline Beecham plc, priority 2000, published 2008)
